# According to paper PMC8318231, “Rate-of-Kill (RoK) assays to triage large compound sets for Chagas disease drug discovery: Application to GSK Chagas Box” (PLoS Neglected Tropical Diseases, 2021):
# Test system: T. cruzi intracellular amastigotes in H9c2 cells
# Assay: Rate-of-Kill (RoK) high-content imaging assay, amastigotes per cell (AM/CELL) and curve descriptors
# Type: cell-based, Trypanosoma cruzi
# Parameters: key to ME_24h / ME_48h / ME_72h: % reduction in parasite burden (cidal response); t50pct_MCC50 / t50pct_Cmax: unit not given here
# Conditions: for ME_24h: 24h; for ME_48h: 48h; for ME_72h: 72h; for tlag_Cmax / t50pct_Cmax / t50%_Cmax: at Cmax; for ME_24h (%): maximum effect at 24 h; for ME_24h (%) / ME_48h (%) / ME_72h (%): RoK assay; for ME_48h (%): maximum effect at 48 h; for ME_72h (%): maximum effect at 72 h; for ME 24h (maximum effect at 24 hours, intracellular amastigotes): maximum percentage of parasite burden reduction reached by any concentration
# Summary of the method: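 H9c2 cardiomyocytes infected with T. cruzi trypomastigotes (MOI 8, 18 h), then compounds tested at 5 μM single shot or 11-point 1/3 dilution from 50 μM. DRAQ5-stained nuclei imaged over a time course. Amastigotes per cell normalised to infected cells at 4 h (0%) and non-infected cells (100%).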
Structure (SMILES),ME_24h (figure 5),ME_48h (figure 5),ME_72h (figure 5),MCCE (RoK curve descriptor) [µM],"AM/CELL NORM (Time 4, sheet figure 4 A)","AM/CELL NORM (Time 24, sheet figure 4 A)","AM/CELL NORM (Time 48, sheet figure 4 A)","AM/CELL NORM (Time 72, sheet figure 4 A)",tlag_Cmax [h],t50pct_Cmax (figure 5),tlag_Cmax (figure 5),t50%_MCC50 (at MCC50) [h],tlag_MCC50 (at MCC50) [h],"t50pct_MCC50 (at MCC50, figure 5)","tlag_MCC50 (at MCC50, figure 5)",MCCE (figure 5),ME_24h (%),ME_48h (%),ME_72h (%),"ME 24h (maximum effect at 24 hours, intracellular amastigotes) [%]",other results
CCC(=O)Nc1ccc(-c2nc3ccc(Cl)cc3[nH]2)cc1 [TCMDC-143135],52.1566,46.9478,38.7036,5.6,-141.214,-21.5946,-76.5792,-95.9437,4.0,72,4,24.0,4.0,24,4,5.556,52.2,47.0,38.7,52.1566,
CC(C)c1cc(C(=O)N2CCCC(c3cc4ncccc4[nH]3)C2)on1 (stereo not shown) [TCMDC-143439],43.352,76.8723,68.3635,1.0,3.622,43.352,76.8723,68.3635,4.0,48,4,60.0,14.0,48,4,1.852,63.1,82.0,79.3,82.7741,"MCC50 (RoK curve descriptor): 16.7 µM; t50%_Cmax: 48.0 h; MCC50 (figure 5, in µM): 16.6667"
CCCc1nc2nc(N)nc(N)c2cc1CC [TCMDC-143606],41.1896,50.5934,54.3499,0.2,30.5298,50.9144,56.204,55.305,4.0,48,4,48.0,4.0,48,4,0.2058,41.2,50.6,54.4,50.9144,"MCC and MCCE values (in words): low MCC and MCCE values; ME (maximum effect) in RoK assay (in words): high ME value; tlag times: 4 h; MCC50 (RoK curve descriptor): 25.9 µM; t50%_Cmax: 60.0 h; MCC50 (figure 5, in µM): 25.9259"
O=C(CSc1ccc(-c2ccccn2)nn1)Nc1ccc(Cl)cc1 [TCMDC-143552],-18.5463,-23.0005,85.8726,5.6,7.37,-202.586,-606.539,-482.613,48.0,72,48,72.0,48.0,72,48,5.556,-18.6,-23.0,85.9,-18.5463,"MCC50 (RoK curve descriptor): 16.7 µM; MCC50 (figure 5, in µM): 16.6667"
Cn1cc(CN2CCN(c3ccc4c(c3)CCN(C(=O)[C@H]3C[C@@H]3c3ccccc3)CC4)CC2)cn1 [TCMDC-143537],33.1689,35.5175,52.5957,0.6,1.751,33.1689,30.0543,50.1418,4.0,72,4,72.0,24.0,72,24,0.6173,33.2,35.5,52.6,33.1689,"MCC50 (RoK curve descriptor): 16.7 µM; t50%_Cmax: 72.0 h; MCC50 (figure 5, in µM): 16.6667"
Cc1nnnn1-c1cccc(C(=O)N2CCC[C@@]3(C)c4ncncc4CCC23)c1 (stereo partly shown) [TCMDC-143148],-108.08,-0.7839,73.626,0.6,4.786,-133.046,-35.529,70.8755,24.0,72,24,72.0,24.0,72,24,0.6173,-108.1,-0.8,73.6,-108.08,"MCC50 (RoK curve descriptor): 1.9 µM; t50%_Cmax: 72.0 h; MCC50 (figure 5, in µM): 1.852"
COc1ccc(NS(=O)(=O)c2cc(NC(=O)c3ccc([N+](=O)[O-])s3)ccc2OC)cc1 [TCMDC-143163],71.4836,99.4358,93.6846,0.2,10.6053,69.9764,96.1683,85.8906,4.0,24,4,48.0,24.0,48,24,0.2058,71.5,99.4,93.7,71.4836,"MCC50 (RoK curve descriptor): 0.2 µM; t50%_Cmax: 24.0 h; MCC50 (figure 5, in µM): 0.2058"
CC(C)Oc1cccc(N2CCC(C(=O)N3CCCN(C(C)C)CC3)CC2)c1.Cl [TCMDC-143432],-31.9347,48.3783,79.9841,1.2,-8.446,-20.4309,59.253,56.8532,24.0,60,24,72.0,24.0,72,24,1.235,-31.9,48.4,80.0,-15.8852,"MCC50 (RoK curve descriptor): 1.9 µM; t50%_Cmax: 60.0 h; MCC50 (figure 5, in µM): 1.852"
NC(=O)c1ccccc1Nc1nc(NC2CCCCC2)nc2[nH]ccc12 [TCMDC-143314],-235.508,-846.189,-1441.39,0.6,,,,,72.0,72,72,,,72,72,0.6173,-235.5,-846.2,-1441.4,91.926,"AM/CELL NORM (Time 4, figure 4 A): -0.353; AM/CELL NORM (Time 24, figure 4 A): -235.508; AM/CELL NORM (Time 48, figure 4 A): -898.709; AM/CELL NORM (Time 72, figure 4 A): -1946.1; MCC50 (figure 5): 50 µM"
Fc1ccc(OC2CC(NCc3cccc4cn[nH]c34)C2)cc1C(F)(F)F (stereo not shown) [TCMDC-143455],25.577,44.8387,61.893,0.2,,,,,24.0,72,24,72.0,24.0,72,24,0.2058,25.6,44.8,61.9,107.523,"MCC50 (RoK curve descriptor): 5.6 µM; AM/CELL NORM (Time 4, figure 4 A): 30.3216; AM/CELL NORM (Time 24, figure 4 A): 25.577; AM/CELL NORM (Time 48, figure 4 A): 44.8387; AM/CELL NORM (Time 72, figure 4 A): 61.893; t50%_Cmax: 72.0 h; MCC50 (figure 5, in µM): 5.556"
CS(=O)(=O)c1cccc(-c2cnc(N)c3c(-c4ccc(CO)cc4)csc23)c1.O=C(O)C(F)(F)F [TCMDC-143410],16.9023,39.285,41.8133,1.2,25.2958,6.562,-1.837,13.104,36.0,72,36,72.0,4.0,72,38,1.235,16.9,39.3,41.8,40.1676,"MCC50 (RoK curve descriptor): 1.9 µM; MCC50 (figure 5, in µM): 25.9259"
